The values that follow are results of earlier work, collected in patent publication US20190343121A1, “Cinmethylin Microcapsules with a Shell Made of Tetramethylxylylene Diisocyanate and a Polyamine with at Least Three Amine Groups” (BASF Agro B.V., priority 2016, published 2019).

For the data set the following is noted: at 20° C.

For “(±)-2-exo-(2-methylbenzyloxy)-1-methyl-4-isopropyl-7-oxabicyclo[2.2.1]heptane [Cinmethylin]”, the solubility in water is 63 µg/mL.
